The results in this text go back to patent publication US9693997B2, “Antiviral compounds” (priority 2013, dated 2017).

Where a name gives a salt, the structure may show the parent alone. Read-outs that look alike come from different tables or passages of the source.

By EC50 is commonly meant the concentration at which the effect is half-maximal.

For assay [1], the system named is Pseudotyped HCV GT1b particles (HCVpp), entry into Huh7-high CD81 cells. Put plainly: microbe, parasite or virus in culture. The format is cell-based, HCV GT1b Con1 strain.
Assay [2] relates to pseudotyped VSV G particles (VSVpp) in Huh7-high CD81 cells. Put plainly: microbe, parasite or virus in culture. Type of assay: cell-based, vesicular stomatitis virus.
Setting [3] is: Hepatitis C virus, GT1B, 72 h, read-out: HCVpp GT-1b (EC50, μM).
Setting [4] is: Vesicular stomatitis virus, 72 h, read-out: VSVpp (EC50, μM).

As to `CN(C(=O)OC(C)(C)C)C(C)(C)COc1ccc(-c2c(Cl)cc(Nc3n[nH]c(N)n3)cc2C(F)(F)F)cc1` [Compound 128, {2-[4′-(5-Amino-1H-[1,2,4]triazol-3-ylamino)-6′-chloro-2′-trifluoromethyl-biphenyl-4-yloxy]-1,1-dimethyl-ethyl}-methyl-carbamic acid tert-butyl ester], the EC50 in assay [1] (setting [3]) is 0.011 µM; in assay [2] (setting [4]), 9.26 µM.
`Nc1nc(Nc2cc(Cl)c(-c3ccc4c(c3)NC(=O)C4)c(Cl)c2)n[nH]1` [Compound 256]: the EC50 in assay [1] (setting [3]) was 0.594 µM; in assay [2] (setting [4]), 8.69 µM.
The corresponding values for `COc1ccc(-c2c(Cl)cc(Nc3n[nH]c(N)n3)cc2C(F)(F)F)cc1S(=O)(=O)NC(C)(C)C` [Compound 216, 4′-(5-Amino-1H-[1,2,4]triazol-3-ylamino)-6′-chloro-4-methoxy-2′-trifluoromethyl-biphenyl-3-sulfonic acid tert-butylamide] are 0.004 µM and 6.48 µM.
Consider `Nc1nc(Nc2cc(Cl)c(-c3ccc(S(=O)(=O)CC4CC4)cc3)c(C(F)(F)F)c2)n[nH]1` [Compound 64, N*3*-(6-Chloro-4′-cyclopropylmethanesulfonyl-2-trifluoromethyl-biphenyl-4-yl)-1H-1,2,4-triazole-3,5-diamine], for which the 50% effective concentration (EC50) was 0.023 µM in assay [1] (setting [3]) and 9.54 µM in assay [2] (setting [4]).
For `Nc1nc(Nc2cc(Cl)c(-c3ccc(S(=O)(=O)NC[C@@H]4CCCN4)cc3)c(C(F)(F)F)c2)n[nH]1` [Compound 27, 4′-(5-Amino-1H-[1,2,4]triazol-3-ylamino)-2′-chloro-6′-trifluoromethyl-biphenyl-4-sulfonic acid ((S)-1-pyrrolidin-2-ylmethyl)-amide; hydrochloride], the EC50 in assay [1] (setting [3]) came out at 0.052 µM; in assay [2] (setting [4]) it was 30.1 µM.
The corresponding values for `CN1C(C)(C)CC(Sc2ccc(-c3c(Cl)cc(Nc4n[nH]c(N)n4)cc3C(F)(F)F)cc2)CC1(C)C` [Compound 127, N*3*-[6-Chloro-4′-(1,2,2,6,6-pentamethyl-piperidin-4-ylsulfanyl)-2-trifluoromethyl-biphenyl-4-yl]-1H-[1,2,4]triazole-3,5-diamine] are 0.144 µM and 9.69 µM.
Turning to `COc1ccc(-c2c(Cl)cc(Nc3n[nH]c(N)n3)cc2C(F)(F)F)cc1S(=O)(=O)NC1(C)CNC1` [Compound 215, 4′-(5-amino-1H-1,2,4-triazol-3-ylamino)-2′-chloro-4-methoxy-N-(3-methylazetidin-3-yl)-6′-(trifluoromethyl)biphenyl-3-sulfonamide hydrochloride], the values for the EC50 in assay [1] (setting [3]) and in assay [2] (setting [4]) were 0.111 µM and > 10 µM, respectively.
In the same order, the values of `CNS(=O)(=O)c1cccc(-c2c(Cl)cc(Nc3n[nH]c(N)n3)cc2Cl)c1` [Compound 119, 4′-(5-Amino-1H-[1,2,4]triazol-3-ylamino)-2′,6′-dichloro-biphenyl-3-sulfonic acid methylamide] are 0.046 µM and 3.94 µM.
The corresponding values for `Nc1n[nH]c(Nc2cc(F)c(-c3ccc(F)cc3)c(C(F)(F)F)c2)n1` [Compound 245, N^5-[6,4′-Difluoro-2-trifluoromethylbiphenyl-4-yl]-1H-[1,2,4]-triazole-3,5-diamine] are 1.47 µM and 17.1 µM.
In the case of “[4′-(5-amino-1H-[1,2,4]triazol-3-ylamino)-2′-chloro-6′-trifluoromethyl-biphenyl-4-yl]-carbamic acid propyl ester [Compound 238]”, the EC50 was 0.078 µM in assay [1] (read-out: HCVpp GT-1b (EC50)) and 24.9 µM in assay [2] (read-out: VSVpp (EC50)).
For `Nc1nc(Nc2cc(Cl)c(-c3ccc(S(=O)(=O)CCO)cc3)c(C(F)(F)F)c2)n[nH]1` [Compound 162, 2-[4′-(5-Amino-1H-[1,2,4]triazol-3-ylamino)-2′-chloro-6′-trifluoromethyl-biphenyl-4-sulfonyl]-ethanol], the EC50 in assay [1] (setting [3]) was 0.126 µM; in assay [2] (setting [4]) it was > 10 µM.
Consider `CNC(=O)c1ccc(-c2c(Cl)cc(Nc3n[nH]c(N)n3)cc2C(F)(F)F)cc1` [Compound 189, 4′-(5-amino-1H-1,2,4-triazol-3-ylamino)-2′-chloro-N-methyl-6′-(trifluoromethyl)biphenyl-4-carboxamide], for which the figures for the EC50 in assay [1] (setting [3]) and in assay [2] (setting [4]) were 0.08 µM and 36.8 µM, respectively.
The corresponding values for `CC(C)(NS(=O)(=O)c1ccc(-c2c(Cl)cc(Nc3n[nH]c(N)n3)cc2C(F)(F)F)cc1)C(F)(F)F` [Compound 165, 4′-(5-amino-1H-1,2,4-triazol-3-ylamino)-2′-chloro-N-(1,1,1-trifluoro-2-methylpropan-2-yl)-6′-(trifluoromethyl)biphenyl-4-sulfonamide] are 0.009 µM and > 10 µM.
The corresponding values for `Nc1nc(Nc2cc(Cl)c(-c3ccc(S(=O)(=O)N4CCC(O)CC4)cc3)c(C(F)(F)F)c2)n[nH]1` [Compound 194, 1-(4′-(5-amino-1H-1,2,4-triazol-3-ylamino)-2′-chloro-6′-(trifluoromethyl)biphenyl-4-ylsulfonyl)piperidin-4-ol] are 0.115 µM and 22.8 µM.
As to `CC(C)(C)Oc1ccc(-c2c(Cl)cc(Nc3n[nH]c(N)n3)cc2C(F)(F)F)cc1` [Compound 230, N*3*-(4′-tert-Butoxy-6-chloro-2-trifluoromethyl-biphenyl-4-yl)-1H-[1,2,4]triazole-3,5-diamine], the EC50 in assay [1] (setting [3]) is 0.332 µM; in assay [2] (setting [4]), > 10 µM.
In the same order, the values of `Nc1nc(Nc2cc(Cl)c(-c3ccc(S(=O)(=O)C4CCCNC4)cc3)c(C(F)(F)F)c2)n[nH]1` (stereo not drawn) [Compound 29, N*3*-[2-Chloro-4′-(piperidine-3-sulfonyl)-6-trifluoromethyl-biphenyl-4-yl]-1H-[1,2,4]triazole-3,5-diamine; hydrochloride] are 0.09 µM and 3.53 µM.
The corresponding values for `COCCOc1ccc(-c2c(Cl)cc(Nc3n[nH]c(N)n3)cc2Cl)cc1` [Compound 278, N*3*-[2,6-Dichloro-4′-(2-methoxy-ethoxy)-biphenyl-4-yl]-1H-[1,2,4]triazole-3,5-diamine] are 0.264 µM and 5.31 µM.
In the same order, the values of `COc1cc(-c2c(Cl)cc(Nc3n[nH]c(N)n3)cc2C(F)(F)F)ccc1S(=O)(=O)NC1CCN(C(=O)OC(C)(C)C)CC1` [Compound 163, tert-butyl 4-(4′-(5-amino-1H-1,2,4-triazol-3-ylamino)-2′-chloro-3-methoxy-6′-(trifluoromethyl)biphenyl-4-ylsulfonamido)piperidine-1-carboxylate] are 0.005 µM and > 10 µM.
Consider `Nc1nc(Nc2cc(Cl)c(-c3ccc(NC(=O)CN4CCOCC4)cc3)c(C(F)(F)F)c2)n[nH]1` [Compound 241, [4′-(5-amino-1H-[1,2,4]triazol-3-ylamino)-2′-chloro-6′-trifluoromethyl-biphenyl-4-yl]-2-morpholin-4-yl-acetamide], for which the results for the EC50 in assay [1] (setting [3]) and in assay [2] (setting [4]) were 0.123 µM and > 10 µM, respectively.
In the same order, the values of `CC1(O)CCN(S(=O)(=O)c2ccc(-c3c(Cl)cc(Nc4n[nH]c(N)n4)cc3C(F)(F)F)cc2)CC1` [Compound 66, 1-[4′-(5-Amino-1H-[1,2,4]triazol-3-ylamino)-6′-chloro-2′-trifluoromethyl-biphenyl-4-sulfonyl]-4-methyl-piperidin-4-ol] are 0.101 µM and 7.32 µM.
As for `CC(C)(C)CCN1CCC(CS(=O)(=O)c2ccc(-c3c(Cl)cc(Nc4n[nH]c(N)n4)cc3C(F)(F)F)cc2)CC1` [Compound 57, N*3*-{2-Chloro-4′-[1-(3,3-dimethyl-butyl)-piperidin-4-ylmethanesulfonyl]-6-trifluoromethyl-biphenyl-4-yl}-1H-[1,2,4]triazole-3,5-diamine; hydrochloride], the EC50 in assay [1] (setting [3]) was 0.049 µM; in assay [2] (setting [4]), 2.45 µM.
The corresponding values for `Nc1nc(Nc2cc(Cl)c(-c3ccc4[nH]ncc4c3)c(Cl)c2)n[nH]1` [Compound 257, N-3-[3′,5′-dichlorophenyl-4′-(1H-indazol-5-yl)-phenyl]-1H-[1,2,4]triazole-3,5-diamine] are 0.343 µM and 2.73 µM.
The corresponding values for `Nc1nc(Nc2cc(Cl)c(-c3ccc(S(=O)(=O)C4CCN(CCC(F)(F)F)CC4)cc3)c(C(F)(F)F)c2)n[nH]1` [Compound 4, N*3*-{2-Chloro-6-trifluoromethyl-4′-[1-(3,3,3-trifluoro-propyl)-piperidine-4-sulfonyl]-biphenyl-4-yl}-1H-[1,2,4]triazole-3,5-diamine; hydrochloride] are 0.005 µM and > 10 µM.
For the compound `Nc1nc(Nc2cc(Cl)c(-c3ccc(N4CCCC4=O)cc3)c(Cl)c2)n[nH]1` [Compound 43, 1-[4′-(5-Amino-1H-[1,2,4]triazol-3-ylamino)-2′,6′-dichloro-biphenyl-4-yl]-pyrrolidin-2-one], the results for the EC50 in assay [1] (setting [3]) and in assay [2] (setting [4]) were 0.169 µM and 15.4 µM, respectively.
Consider `Nc1nc(Nc2cc(Cl)c(-c3cccc(OC4CCNCC4)c3)c(C(F)(F)F)c2)n[nH]1` [Compound 41, N*3*-[2-Chloro-3′-(piperidin-4-yloxy)-6-trifluoromethyl-biphenyl-4-yl]-1H-[1,2,4]triazole-3,5-diamine; hydrochloride], for which the EC50 is 0.166 µM in assay [1] (setting [3]) and > 10 µM in assay [2] (setting [4]).
Turning to `Nc1nc(Nc2cc(Cl)c(-c3ccc(S(=O)(=O)N4CC(F)C4)cc3)c(C(F)(F)F)c2)n[nH]1` [Compound 233, N*3*-[6-Chloro-4′-(3-fluoro-azetidine-1-sulfonyl)-2-trifluoromethyl-biphenyl-4-yl]-1H-[1,2,4]triazole-3,5-diamine], the EC50 in assay [1] (setting [3]) is 0.051 µM; in assay [2] (setting [4]) it was > 10 µM.
The corresponding values for `NCCOc1ccc(-c2c(Cl)cc(Nc3n[nH]c(N)n3)cc2C(F)(F)F)cc1` [Compound 135, N*3*-[4′-(2-Amino-ethoxy)-6-chloro-2-trifluoromethyl-biphenyl-4-yl]-1H-[1,2,4]-triazole-3,5-diamine hydrochloride] are 0.077 µM and > 10 µM.
